In US10875857B2, “1-amino-triazolo(1,5-A)pyridine-substituted urea derivative and uses thereof” (Kala Pharmaceuticals, Inc., priority 2014, dated 2020):

Columns and labels:
[1] = biological target: T1, VEGFR2 (Homo sapiens, UniProt P35968); assay: Cellular VEGFR2 tyrosine auto-phosphorylation assay in HUE cells after VEGF-A stimulation (sandwich ELISA); type: cell-based; conditions: 90 min incubation with compound, then 3 min stimulation with 100 ng/ml VEGF-A, phosphorylated VEGFR2 by ELISA, read-out: cellular 1050 values, VEGFR2
T1 construct: The human umbilical endothelial (HUE) cell line expresses high levels of VEGFR2; endogenous in cells; host or cells: HUE (human umbilical endothelial) cell line
T1 sequence (P35968 20-1356): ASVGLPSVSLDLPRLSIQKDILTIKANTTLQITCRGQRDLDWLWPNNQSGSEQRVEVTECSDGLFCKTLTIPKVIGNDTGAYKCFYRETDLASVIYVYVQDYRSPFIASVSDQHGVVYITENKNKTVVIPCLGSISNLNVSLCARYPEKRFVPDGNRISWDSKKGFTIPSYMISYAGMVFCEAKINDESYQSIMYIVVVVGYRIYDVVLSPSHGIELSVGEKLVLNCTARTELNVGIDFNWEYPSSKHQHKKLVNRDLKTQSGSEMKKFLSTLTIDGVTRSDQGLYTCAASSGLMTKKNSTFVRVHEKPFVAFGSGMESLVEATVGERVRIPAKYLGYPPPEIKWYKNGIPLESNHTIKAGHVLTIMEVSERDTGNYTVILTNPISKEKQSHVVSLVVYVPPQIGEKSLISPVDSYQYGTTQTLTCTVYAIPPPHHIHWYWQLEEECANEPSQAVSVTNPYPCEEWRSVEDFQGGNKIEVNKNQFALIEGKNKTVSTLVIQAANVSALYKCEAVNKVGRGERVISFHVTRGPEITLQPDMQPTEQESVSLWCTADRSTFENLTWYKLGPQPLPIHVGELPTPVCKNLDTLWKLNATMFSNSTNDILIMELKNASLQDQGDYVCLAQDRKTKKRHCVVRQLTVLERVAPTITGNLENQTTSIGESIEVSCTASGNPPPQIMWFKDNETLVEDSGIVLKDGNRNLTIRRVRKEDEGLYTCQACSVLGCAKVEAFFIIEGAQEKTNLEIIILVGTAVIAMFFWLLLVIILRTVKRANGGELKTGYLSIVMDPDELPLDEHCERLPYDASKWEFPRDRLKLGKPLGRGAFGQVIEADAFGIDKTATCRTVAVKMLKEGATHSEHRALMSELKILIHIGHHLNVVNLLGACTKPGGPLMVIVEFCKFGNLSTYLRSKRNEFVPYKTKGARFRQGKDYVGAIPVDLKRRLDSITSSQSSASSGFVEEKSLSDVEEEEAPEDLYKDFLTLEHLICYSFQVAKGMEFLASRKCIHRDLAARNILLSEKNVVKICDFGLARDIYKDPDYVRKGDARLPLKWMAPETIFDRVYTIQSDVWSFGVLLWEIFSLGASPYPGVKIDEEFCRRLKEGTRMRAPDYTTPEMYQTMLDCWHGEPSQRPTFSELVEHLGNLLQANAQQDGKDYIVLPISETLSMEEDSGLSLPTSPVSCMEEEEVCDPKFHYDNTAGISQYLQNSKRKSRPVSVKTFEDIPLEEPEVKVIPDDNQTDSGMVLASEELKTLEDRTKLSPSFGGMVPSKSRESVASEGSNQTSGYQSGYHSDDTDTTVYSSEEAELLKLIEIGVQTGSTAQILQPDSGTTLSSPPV
Description: The human umbilical endothelial (HUE) cell line expresses high levels of VEGFR2. The compound prepared in Example 2 above, 1-(4-(3-amino-[1,2,3]triazolo[1,5-a]pyridin-4-yl)phenyl)-3-(3-chlorophenyl)urea, was tested for the ability to inhibit tyrosine auto-phosphorylation of this receptor after stimulation with vascular endothelial growth factor A (VEGF-A). HUE cells were plated into multi-well cell culture plates in endothelial cell growth medium (ECGM) supplemented with 10% fetal calf serum (FCS). After starvation in endothelial cell basal medium (ECBM) supplemented with […] overnight cells were incubated with compounds in serum-free ECBM. […] Cells were incubated for 90 min at 37° C. in ECBM with the serial diluted compound and then stimulated for 3 min with 100 ng/ml VEGF-A. Cells were lysed, and then levels of phosphorylated VEGFR2 were determined in a sandwich ELISA assay formatted in a multi-well plate using a VEGFR2 specific capture antibody and an anti-phosphotyrosine VEGFR2 detection antibody. […] IC50 values were determined by fitting the converted eight point dose response data to a four-parameter logistic equation using GRAPHPAD PRISM® 5.01 software.

[2] = biological target: T2, PDGFR-β (Mus musculus, UniProt P05622); assay: Cellular PDGFR-β tyrosine auto-phosphorylation assay in NIH3T3 cells after PDGF-BB stimulation (sandwich ELISA); type: cell-based, murine; conditions: 90 min incubation with compound, then 3 min stimulation with 100 ng/ml PDGF-BB, phosphorylated PDGFR-β by ELISA, read-out: cellular 1050 values, PDGFR-β
T2 construct: The murine embryonal fibroblast cell line NIH3T3 expresses endogenously high levels of PDGFR-β; endogenous in cells; host or cells: NIH3T3 murine embryonal fibroblast cell line
T2 sequence (P05622 32-1098): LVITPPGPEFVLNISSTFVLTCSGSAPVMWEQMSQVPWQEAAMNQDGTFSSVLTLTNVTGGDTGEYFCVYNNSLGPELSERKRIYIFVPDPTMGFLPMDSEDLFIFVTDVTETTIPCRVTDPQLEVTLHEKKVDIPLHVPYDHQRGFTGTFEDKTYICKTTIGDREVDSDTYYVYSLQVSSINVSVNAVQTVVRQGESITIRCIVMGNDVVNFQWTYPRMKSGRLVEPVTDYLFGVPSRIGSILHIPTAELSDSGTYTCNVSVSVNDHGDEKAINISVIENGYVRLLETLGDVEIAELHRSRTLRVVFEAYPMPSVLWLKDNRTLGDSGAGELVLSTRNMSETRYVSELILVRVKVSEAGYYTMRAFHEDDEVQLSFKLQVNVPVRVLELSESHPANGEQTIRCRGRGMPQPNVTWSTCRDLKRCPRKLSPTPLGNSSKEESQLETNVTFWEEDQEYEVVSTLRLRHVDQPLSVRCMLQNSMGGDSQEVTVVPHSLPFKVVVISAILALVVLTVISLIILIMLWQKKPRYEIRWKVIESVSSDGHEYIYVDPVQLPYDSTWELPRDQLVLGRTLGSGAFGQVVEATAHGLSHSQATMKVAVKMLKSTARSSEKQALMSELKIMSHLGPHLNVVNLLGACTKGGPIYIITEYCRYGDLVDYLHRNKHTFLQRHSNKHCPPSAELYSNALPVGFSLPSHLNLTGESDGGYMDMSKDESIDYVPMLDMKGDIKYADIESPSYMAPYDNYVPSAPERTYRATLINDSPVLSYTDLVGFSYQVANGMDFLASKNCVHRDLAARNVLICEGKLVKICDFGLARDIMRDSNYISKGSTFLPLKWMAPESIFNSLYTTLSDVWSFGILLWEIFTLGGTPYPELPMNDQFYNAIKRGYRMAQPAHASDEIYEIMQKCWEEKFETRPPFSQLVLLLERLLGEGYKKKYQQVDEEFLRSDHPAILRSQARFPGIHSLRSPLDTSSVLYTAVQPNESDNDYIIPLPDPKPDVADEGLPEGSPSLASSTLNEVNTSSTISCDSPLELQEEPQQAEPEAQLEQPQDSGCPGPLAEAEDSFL
Description: The murine embryonal fibroblast cell line NIH3T3 expresses endogenously high levels of PDGFR-β. The compound prepared in Example 2 above was tested for the ability to inhibit tyrosine auto-phosphorylation of this receptor after stimulation with platelet-derived growth factor BB (PDGF-BB). The NIH3T3 cells were plated into multi-well cell culture plates in Dulbecco's Modified Eagle Medium (DMEM) supplemented with 10% FCS. The medium was removed and then replaced with DMEM without FCS and cells serum starved overnight at 37° C. On the day of the assay the compound was 1:3 serial diluted from 10 mM stocks in 100% DMSO and then were 1:100 diluted to each well of cells in DMEM without FCS to create final solutions containing 1% DMSO and an eight point compound dose response curve starting at 10^−6 M, 10^−7 M, or 10^−8 M. The compound was added in duplicate to columns of the multi-well plate. […] Cells were lysed, and then levels of phosphorylated PDGFR-β were determined in a sandwich ELISA assay formatted in a multi-well plate using a PDGFR-β specific capture antibody and an anti-phosphotyrosine PDGFR-β detection antibody. […] IC50 values were determined by fitting the converted eight point dose response data to a four-parameter logistic equation using GRAPHPAD PRISM® 5.01 software.

- IC50 [1]: 0.37 nM
- IC50 [2]: 3.2 nM
Compound: Nc1nnn2cccc(-c3ccc(NC(=O)Nc4cccc(Cl)c4)cc3)c12 [compound of Formula (I), 1-(4-(3-amino-[1,2,3]triazolo[1,5-a]pyridin-4-yl)phenyl)-3-(3-chlorophenyl)urea]
